Source: patent US7183075B2, “Purified and isolated potassium-chloride cotransporter nucleic acids and polypeptides and therapeutic and screening methods using same” (Vanderbilt University, priority 2000, dated 2007)

Tests used:
[1] = target: T1, hKCC3b (Homo sapiens, UniProt Q9UHW9); assay type: cell-based; details: 2 mM furosemide; 100 nM calyculin A
T1 construct: expressed in transfected cells; host or cells: Xenopus oocytes microinjected with KCC3b cRNA
T1 sequence (Q9UHW9 1-1099 isoform Q9UHW9-2): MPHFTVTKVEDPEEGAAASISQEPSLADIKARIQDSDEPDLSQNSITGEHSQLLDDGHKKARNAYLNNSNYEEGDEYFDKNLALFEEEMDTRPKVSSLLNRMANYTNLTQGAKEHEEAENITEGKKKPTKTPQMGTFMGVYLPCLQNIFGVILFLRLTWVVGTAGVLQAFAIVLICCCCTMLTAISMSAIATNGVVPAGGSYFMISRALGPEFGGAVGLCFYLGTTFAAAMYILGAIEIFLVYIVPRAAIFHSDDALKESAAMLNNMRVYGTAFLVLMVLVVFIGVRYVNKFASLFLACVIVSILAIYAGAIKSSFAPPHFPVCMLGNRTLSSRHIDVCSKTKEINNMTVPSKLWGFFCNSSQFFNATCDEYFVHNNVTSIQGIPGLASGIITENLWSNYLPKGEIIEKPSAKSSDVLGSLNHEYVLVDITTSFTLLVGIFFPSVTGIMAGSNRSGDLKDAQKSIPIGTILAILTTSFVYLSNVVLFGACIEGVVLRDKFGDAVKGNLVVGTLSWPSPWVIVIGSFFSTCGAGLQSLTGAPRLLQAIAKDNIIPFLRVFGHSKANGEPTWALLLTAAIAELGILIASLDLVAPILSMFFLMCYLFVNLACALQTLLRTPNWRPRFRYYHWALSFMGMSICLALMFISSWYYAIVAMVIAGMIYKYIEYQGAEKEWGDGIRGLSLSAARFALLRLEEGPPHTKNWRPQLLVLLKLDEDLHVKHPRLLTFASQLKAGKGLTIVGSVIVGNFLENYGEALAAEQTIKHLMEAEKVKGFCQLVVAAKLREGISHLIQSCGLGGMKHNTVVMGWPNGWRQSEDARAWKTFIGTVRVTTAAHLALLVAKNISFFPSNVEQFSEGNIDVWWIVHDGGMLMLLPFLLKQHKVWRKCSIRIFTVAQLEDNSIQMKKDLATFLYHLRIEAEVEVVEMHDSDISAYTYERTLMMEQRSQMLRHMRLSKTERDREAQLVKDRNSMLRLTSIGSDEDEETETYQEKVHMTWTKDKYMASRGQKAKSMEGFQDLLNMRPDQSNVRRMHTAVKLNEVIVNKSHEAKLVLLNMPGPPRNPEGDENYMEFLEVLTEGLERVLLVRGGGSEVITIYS
Description: Open bars, uptake assays performed in a control medium containing 10 mM K^+and 50 mM Cl^−; hatched bars, uptake assays performed in medium lacking Cl^−; bars with horizontal stripes, uptake assays performed in the presence of 100 nM calyculin A; black bars, uptake assays performed in the presence of okadaic acid; gray bars, uptake assays performed in the presence of cypermetrin.

[2] = target: T2, rat KCC2 (Rattus norvegicus, UniProt Q63633); details: rat KCC2 in HEK293 cells; read-out: chloride affinity (Km) reported for rKCC2; cited from earlier work
T2 construct: host or cells: HEK293 cells
T2 sequence (Q63633 1-1116 isoform Q63633-2): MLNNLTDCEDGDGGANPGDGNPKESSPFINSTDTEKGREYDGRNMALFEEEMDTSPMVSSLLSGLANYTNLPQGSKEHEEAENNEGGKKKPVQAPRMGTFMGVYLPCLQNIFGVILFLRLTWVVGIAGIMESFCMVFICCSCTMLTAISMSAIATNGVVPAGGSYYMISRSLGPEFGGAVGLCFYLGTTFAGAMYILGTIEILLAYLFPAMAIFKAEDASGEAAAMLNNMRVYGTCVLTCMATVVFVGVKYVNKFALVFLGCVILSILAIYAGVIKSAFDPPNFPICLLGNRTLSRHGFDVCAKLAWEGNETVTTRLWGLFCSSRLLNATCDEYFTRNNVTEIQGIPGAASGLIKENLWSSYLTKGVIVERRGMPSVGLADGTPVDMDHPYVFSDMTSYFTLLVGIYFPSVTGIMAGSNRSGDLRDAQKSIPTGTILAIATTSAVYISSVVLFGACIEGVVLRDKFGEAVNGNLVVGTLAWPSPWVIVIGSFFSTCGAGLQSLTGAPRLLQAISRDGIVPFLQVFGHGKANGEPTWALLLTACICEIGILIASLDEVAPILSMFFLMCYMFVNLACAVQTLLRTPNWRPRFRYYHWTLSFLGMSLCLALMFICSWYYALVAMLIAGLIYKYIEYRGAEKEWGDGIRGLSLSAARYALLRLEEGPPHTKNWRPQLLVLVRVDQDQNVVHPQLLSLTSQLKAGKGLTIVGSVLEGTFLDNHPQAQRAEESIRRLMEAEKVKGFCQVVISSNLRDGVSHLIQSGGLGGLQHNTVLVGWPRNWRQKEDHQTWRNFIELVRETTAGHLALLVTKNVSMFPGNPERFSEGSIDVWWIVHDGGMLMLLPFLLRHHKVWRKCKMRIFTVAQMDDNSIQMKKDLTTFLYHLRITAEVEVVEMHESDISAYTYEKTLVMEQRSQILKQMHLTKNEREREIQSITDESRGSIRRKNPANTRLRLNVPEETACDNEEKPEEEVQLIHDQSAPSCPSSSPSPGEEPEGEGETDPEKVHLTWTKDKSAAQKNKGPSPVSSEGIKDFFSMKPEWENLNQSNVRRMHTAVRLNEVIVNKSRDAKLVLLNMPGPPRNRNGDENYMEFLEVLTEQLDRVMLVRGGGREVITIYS

[3] = system: Na^+—K^+-2Cl^− cotransport activity of Xenopus oocytes; assay: Endogenous Na+-K+-2Cl- cotransport activity of Xenopus oocytes; assay type: cell-based; details: 100 μM DIOA
Description: The sensitivity of the KCCs to other inhibitors of red cell K^+—Cl^− cotransport was also assessed in oocytes injected with KCC4 or KCC1. FIG. 18 illustrates the effect of 100 μM DIDS and 100 μM DIOA on the ^86Rb^+ uptake induced by the microinjection of each KCC cRNA. The effect of extracellular K^+ concentration on the inhibition of cotransport was very dramatic for DIDS. […] However, inhibition of KCC4 was higher when extracellular K^+ was lower, although this was not the case for KCC1. DIOA is reportedly specific for K^+—Cl^− cotransport over Na^+—K^+-2Cl^− cotransport (Garay et al. (1988) Mol Pharmacol 33:696–701), and the same concentration of DIOA had no effect on the function of the Na^+—K^+-2Cl^− cotransport activity of Xenopus oocytes (Gamba et al. (1994) J Biol Chem 269: 17713–17722).

## COC[C@@H]([C@H](O)[C@H](O)C(=O)NCC[C@H](C)c1nc(/C=C/C[C@@H]2O[C@]3(C[C@@H](O)[C@@H]2C)O[C@H]([C@H](C[C@H](O)[C@H](C)[C@H](O)[C@H](C)/C=C(C)/C(C)=C/C=C/C(C)=C\C#N)OC)[C@H](OP(=O)(O)O)C3(C)C)co1)N(C)C [calyculin A]
[1]
  hKCC3b-mediated K+-Cl- cotransport in the presence of putative inhibitors: blocked

## Cl [Chloride]
[2]
  Km: > 50 mM

## CCCCC1(C2CCCC2)Cc2cc(OCC(=O)O)c(Cl)c(Cl)c2C1=O (stereo not drawn) [DIOA]
[3]
  effect on Na+-K+-2Cl- cotransport activity of Xenopus oocytes: no effect
